Tests used:
[1] = system: mice; experiment: Formalin test (5% formalin, hind foot sole); type: in vivo; design: formalin test pain response: unit not given beside the values
Experimental: 5% formalin was injected subcutaneously into the soles of the hind feet of mice. The mice licked their soles and shook their paws owing to formalin-induced pain. At 20-40 min post-injection (2nd phase), the mice again licked their soles or shook their paws. Pain felt for 5 min post-injection (1st phase) is the same level as the sensation of pain when the body is harmfully stimulated. Pain between 20 and 40 min (2nd phase) is mainly tonic inflammatory pain and is known to be very similar to pain after a big surgical operation.
30 min after pretreatment with the compound 3 (E-S) at concentrations of 10, 20, 40, and 80 mg/kg, formalin test was conducted to assess the analgesic efficacy of the compound 3. […] The analgesic efficacy of the compound 4 (E-A) was assessed in the same manner as that of the compound 3.

[2] = system: Akt; experiment: Western blot analysis, Akt signaling by LPS signals; type: cell-based; settings: 100 uM
Experimental: Cells were harvested, washed with 1×PBS, and suspended by adding a mixture of a protein extraction buffer (150 mM NaCl, 50 mM Tris-HCl pH 7.4, 5 mM EDTA pH 8.0, 1% NP-40) and a protease inhibitor cocktail. Then, the reaction was allowed to proceed in ice for 20 min, sonicated, and centrifuged (13,000 rpm, 30 min). The concentration of proteins in the supernatant was quantified by a BCA protein assay and proteins were separated on the basis of size on an SDS-PAGE gel. Thereafter, proteins were transferred to a PVDF membrane and blocked with skim milk for 1 h. Primary and secondary antibodies were coupled and photosensitized with ECL solution to determine the expression levels of desired proteins.

[3] = system: Raw 264.7 cells; experiment: Cell viability measurement (MTS); type: cell-based
Experimental: Raw 264.7 cells were plated in a 96-well cell culture plate (50,000 cells/well). The cell culture media were removed from the 96-well cell culture plate. 100 μl of MTS reagent (CellTiter 96 AQueous One Solution Cell Proliferation Assay, Promega) was added to each well and the reaction was allowed to proceed at 37° C. for 20 min. After the reaction was finished, the cell viability were determined by measuring the absorbance at a wavelength of 490 nm.

[4] = system: mice; experiment: Writhing test (1% acetic acid intraperitoneally); type: in vivo; settings: for numbers of stretching and writhing movements: 30 min pretreatment
Experimental: In accordance with the most common method for measuring the analgesic efficacies of the test substances in the peripheral nerve based on abdominal contraction responses as indices, 1% acetic acid was administered intraperitoneally to mice to induce damage or pain of the abdominal peripheral vessels. After acetic acid administration, the behavioral profiles of the mice were observed and the numbers of stretching and writhing movements of the mice were counted to determine the analgesic efficacies of the test substances.
30 min after pretreatment with the compound 3 (E-S) at concentrations of 10, 20, 40, and 80 mg/kg, writhing test was conducted to assess the analgesic efficacy of the compound 3. As a result, the analgesic efficacy of the compound 3 was concentration-dependent (FIG. 4a and Table 4). The analgesic efficacy of the compound 4 (E-A) was assessed in the same manner as that of the compound 3.

[5] = system: streptozotocin-induced diabetic mice; experiment: Von-frey test in diabetic neuropathy models; type: in vivo; design: threshold values (Von-frey test): unit not given here
Experimental: 65 mg/kg of streptozotocin (Sigma Corp., USA) was dissolved at a concentration of 15 mg/ml in 0.1 M citrate buffer at pH 4.5 and the resulting solution was administered intraperitoneally to mice. Blood glucose levels were measured 1 week after administration and streptozotocin-induced diabetic mice were chosen.
After damage to the sciatic nerve, allodynia induced by the mechanical stimulus was measured. Mice were housed in acrylic chambers on a steel mesh floor and acclimated for ≥60 min before testing. Continuous responses were evaluated using Von-frey filaments by the up-down method. The filaments were brought into vertical contact with the affected left soles and the contact was maintained for 5-6 sec. The response was considered to be positive when the mouse rapidly avoided the stimulus, startled or licked its sole. The Von-frey filaments were first used to stimulate the mice.
The inhibitory effects of the test substances on pain were determined in diabetic neuropathy models. To this end, after oral administration of each test substance at concentrations of 10, 20, 40, and 80 mg/kg, threshold values were measured at different periods of time through Von-frey test.

[6] = system: Raw 264.7 cells; experiment: Measurement of NO production in LPS-stimulated Raw 264.7 cells; type: cell-based
Experimental: Raw 264.7 cells were plated in a 96-well cell culture plate (50,000 cells/well). Lipopolysaccharide (LPS) was diluted to 100 ng/ml and the dilution was added to the cell culture media The LPS stimulus was applied for 24 h to induce the activity of the Raw 264.7 cells and supernatants (50 μl each) obtained from the 96-well cell culture plate were plated in a new plate. 50 μl of a sulfanilamide solution was added and the reaction was allowed to proceed for 10 min. 50 μl of a NED solution was added and the reaction was allowed to proceed for 10 min. The amount of NO produced from the cells in the cell culture media was determined by measuring the absorbance at a wavelength of 540 nm.

## O=C(NC1=NCC2c3ccccc3Cc3ccccc3N12)c1ccccc1O (centres unmarked) [E-S, N-(9,13b-dihydro-1H-dibenzo[c,f]imidazo[1,5-a]azepin-3-yl)-2-hydroxybenzamide]
[1]; 10 mg/kg, first column group (1st phase, not given)
  formalin test pain response: 66.25
[1]; 10 mg/kg, second column group (2nd phase, not given)
  formalin test pain response: 48.5
[1]; 20 mg/kg, first column group (1st phase, not given)
  formalin test pain response: 60.5
[1]; 20 mg/kg, second column group (2nd phase, not given)
  formalin test pain response: 48.25
[1]; 40 mg/kg, first column group (1st phase, not given)
  formalin test pain response: 60.5
[1]; 40 mg/kg, second column group (2nd phase, not given)
  formalin test pain response: 45.0
[1]; 80 mg/kg, first column group (1st phase, not given)
  formalin test pain response: 52.0
[1]; 80 mg/kg, second column group (2nd phase, not given)
  formalin test pain response: 44.5
[1]; 10, 20, 40, 80 mg/kg
  analgesic efficacy in formalin test (in words): observed in the 2nd phase
[2]
  phosphorylation of Akt by LPS: observed to decrease
[3]
  cell toxicity (cell viability, MTS): no cell toxicities were observed
[4]; 10 mg/kg
  numbers of stretching and writhing movements: 33.75
[4]; 20 mg/kg
  numbers of stretching and writhing movements: 29.75
[4]; 40 mg/kg
  numbers of stretching and writhing movements: 23.75
[4]; 80 mg/kg
  numbers of stretching and writhing movements: 12.75
[4]; 10, 20, 40, 80 mg/kg
  analgesic efficacy in writhing test (in words): concentration-dependent
[5]; oral 10 mg/kg, 1 h
  threshold values (Von-frey test): 0.247
[5]; oral 10 mg/kg, 2 h
  threshold values (Von-frey test): 0.208
[5]; oral 10 mg/kg, 3 h
  threshold values (Von-frey test): 0.363
[5]; oral 10 mg/kg, 4 h
  threshold values (Von-frey test): 0.330
[5]; oral 10 mg/kg, 5 h
  threshold values (Von-frey test): 0.286
[5]; oral 10 mg/kg, basal
  threshold values (Von-frey test): 0.247
[5]; oral 20 mg/kg, 1 h
  threshold values (Von-frey test): 0.286
[5]; oral 20 mg/kg, 2 h
  threshold values (Von-frey test): 0.208
[5]; oral 20 mg/kg, 3 h
  threshold values (Von-frey test): 0.314
[5]; oral 20 mg/kg, 4 h
  threshold values (Von-frey test): 0.186
[5]; oral 20 mg/kg, 5 h
  threshold values (Von-frey test): 0.324
[5]; oral 20 mg/kg, basal
  threshold values (Von-frey test): 0.208
[5]; oral 40 mg/kg, 1 h
  threshold values (Von-frey test): 0.314
[5]; oral 40 mg/kg, 2 h
  threshold values (Von-frey test): 0.391
[5]; oral 40 mg/kg, 3 h
  threshold values (Von-frey test): 0.352
[5]; oral 40 mg/kg, 4 h
  threshold values (Von-frey test): 0.314
[5]; oral 40 mg/kg, 5 h
  threshold values (Von-frey test): 0.391
[5]; oral 40 mg/kg, basal
  threshold values (Von-frey test): 0.225
[5]; oral 80 mg/kg, 1 h
  threshold values (Von-frey test): 0.613
[5]; oral 80 mg/kg, 2 h
  threshold values (Von-frey test): 0.574
[5]; oral 80 mg/kg, 3 h
  threshold values (Von-frey test): 0.391
[5]; oral 80 mg/kg, 4 h
  threshold values (Von-frey test): 0.419
[5]; oral 80 mg/kg, 5 h
  threshold values (Von-frey test): 0.225
[5]; oral 80 mg/kg, basal
  threshold values (Von-frey test): 0.164
[5]; oral 10, 20, 40, 80 mg/kg
  analgesic efficacy, Von-frey test (in words): concentration-dependent until 1-2 h after treatment
[5]; oral 10, 20, 40, 80 mg/kg tested
  concentration of highest analgesic efficacy, Von-frey test: 80 mg/kg
[6]; Mus musculus, RAW264.7, 12.5 μM, LPS 100 ng/ml, 24 h
  inhibition at 12.5 µM: 0%
[6]; Mus musculus, RAW264.7, 25 μM, LPS 100 ng/ml, 24 h
  inhibition at 25 µM: 9.47%
[6]; Mus musculus, RAW264.7, 50 μM, LPS 100 ng/ml, 24 h
  inhibition at 50 µM: 30.8%
[6]; Mus musculus, RAW264.7, 100 μM, LPS 100 ng/ml, 24 h
  inhibition at 100 µM: 40.8%
[6]; together with LPS (100 ng/ml)
  reduction of NO production (in words): concentration-dependent reduction in NO production

Reference: US11396511B2, “Substituted 9,13b-dihydro-1H-dibenzo[c,f]imidazo[1,5-a]azepin-3-ylbenzamides as anti-inflammatory and analgesic agents” (FRONTBIO CO., LTD., priority 2017, dated 2022)
